Reference: the supplement of paper PMC10307832

Columns and labels:
Test in all cases: relative viability (nuclei count vs DMSO), 5 days (fraction); higher = more cells survive
ABC-1 = tested on: ABC-1
How it was run: (§1)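 Lung cancer cell lines in 1536-well plates were dosed by pin tool the day after seeding, either with one drug alone or with a fixed anchor-drug dose plus five library-drug doses (not always all listed) in √10 steps. After 5 days, cells were fixed and their nuclei stained in one step (final 0.05% Triton X-100, 1% formaldehyde, 1 ug/ml Hoechst), then counted on 4× images. Relative viability is the nuclei count in treated wells divided by that in vehicle wells. Values are medians of duplicate plates.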

NCI-H2085 = tested on: NCI-H2085
How it was run: as §1

NCI-H1299 = tested on: NCI-H1299
How it was run: as §1

RERF-LC-KJ = tested on: RERF-LC-KJ
How it was run: as §1

EBC-1 = tested on: EBC-1
How it was run: as §1

HCC-44 = tested on: HCC-44
How it was run: as §1

NCI-H1703 = tested on: NCI-H1703
How it was run: as §1

Calu-6 = tested on: Calu-6
How it was run: as §1

NCI-H2126 = tested on: NCI-H2126
How it was run: as §1

EKVX = tested on: EKVX
How it was run: as §1

A549 = tested on: A549
How it was run: as §1

NCI-H1993 = tested on: NCI-H1993
How it was run: as §1

IA-LM = tested on: IA-LM
How it was run: as §1

SMILES: O=c1cc(-c2cccc3c2Sc2ccccc2S3)oc(N2CCOCC2)c1 + C[C@]1(O)C[C@@H](c2nc(-c3ccc4ccc(-c5ccccc5)nc4c3)c3c(N)nccn32)C1 [Linsitinib] (partner 1 µM)
- relative viability (ABC-1; first compound 0.08 µM): 0.627
- relative viability (ABC-1; first compound 0.253 µM): 1.02
- relative viability (ABC-1; first compound 0.8 µM): 0.717
- relative viability (ABC-1; first compound 2.53 µM): 0.711
- relative viability (ABC-1; first compound 8 µM): 0.954
- relative viability (NCI-H2085; first compound 0.08 µM): 0.812
- relative viability (NCI-H2085; first compound 0.253 µM): 0.911
- relative viability (NCI-H2085; first compound 0.8 µM): 0.925
- relative viability (NCI-H2085; first compound 2.53 µM): 0.846
- relative viability (NCI-H2085; first compound 8 µM): 0.595
- relative viability (NCI-H1299; first compound 0.08 µM): 0.987
- relative viability (NCI-H1299; first compound 0.253 µM): 1
- relative viability (NCI-H1299; first compound 0.8 µM): 1.05
- relative viability (NCI-H1299; first compound 2.53 µM): 1.03
- relative viability (NCI-H1299; first compound 8 µM): 0.984
- relative viability (RERF-LC-KJ; first compound 0.08 µM): 0.865
- relative viability (RERF-LC-KJ; first compound 0.253 µM): 0.939
- relative viability (RERF-LC-KJ; first compound 0.8 µM): 0.85
- relative viability (RERF-LC-KJ; first compound 2.53 µM): 1.01
- relative viability (RERF-LC-KJ; first compound 8 µM): 0.763
- relative viability (EBC-1; first compound 0.08 µM): 0.706
- relative viability (EBC-1; first compound 0.253 µM): 1.14
- relative viability (EBC-1; first compound 0.8 µM): 0.828
- relative viability (EBC-1; first compound 2.53 µM): 0.871
- relative viability (EBC-1; first compound 8 µM): 0.91
- relative viability (HCC-44; first compound 0.08 µM): 0.681
- relative viability (HCC-44; first compound 0.253 µM): 0.532
- relative viability (HCC-44; first compound 0.8 µM): 0.696
- relative viability (HCC-44; first compound 2.53 µM): 0.623
- relative viability (HCC-44; first compound 8 µM): 0.548
- relative viability (NCI-H1703; first compound 0.08 µM): 0.237
- relative viability (NCI-H1703; first compound 0.253 µM): 0.636
- relative viability (NCI-H1703; first compound 0.8 µM): 1.02
- relative viability (NCI-H1703; first compound 2.53 µM): 0.779
- relative viability (NCI-H1703; first compound 8 µM): 0.636
- relative viability (Calu-6; first compound 0.08 µM): 0.909
- relative viability (Calu-6; first compound 0.253 µM): 1.08
- relative viability (Calu-6; first compound 0.8 µM): 0.988
- relative viability (Calu-6; first compound 2.53 µM): 0.934
- relative viability (Calu-6; first compound 8 µM): 1.02
- relative viability (NCI-H2126; first compound 0.08 µM): 0.707
- relative viability (NCI-H2126; first compound 0.253 µM): 0.809
- relative viability (NCI-H2126; first compound 0.8 µM): 0.708
- relative viability (NCI-H2126; first compound 2.53 µM): 0.667
- relative viability (NCI-H2126; first compound 8 µM): 0.592
- relative viability (EKVX; first compound 0.08 µM): 1.17
- relative viability (EKVX; first compound 0.253 µM): 1.13
- relative viability (EKVX; first compound 0.8 µM): 0.818
- relative viability (EKVX; first compound 2.53 µM): 1.02
- relative viability (EKVX; first compound 8 µM): 0.935
- relative viability (A549; first compound 0.08 µM): 0.586
- relative viability (A549; first compound 0.253 µM): 0.863
- relative viability (A549; first compound 0.8 µM): 0.564
- relative viability (A549; first compound 2.53 µM): 0.583
- relative viability (A549; first compound 8 µM): 0.666
- relative viability (NCI-H1993; first compound 0.08 µM): 0.739
- relative viability (NCI-H1993; first compound 0.253 µM): 0.683
- relative viability (NCI-H1993; first compound 0.8 µM): 0.687
- relative viability (NCI-H1993; first compound 2.53 µM): 0.799
- relative viability (NCI-H1993; first compound 8 µM): 0.859
- relative viability (IA-LM; first compound 0.08 µM): 0.695
- relative viability (IA-LM; first compound 0.253 µM): 0.919
- relative viability (IA-LM; first compound 0.8 µM): 0.491
- relative viability (IA-LM; first compound 2.53 µM): 0.465
- relative viability (IA-LM; first compound 8 µM): 0.343
